Source: paper PMC11596392, “Enhanced Antibacterial, Anti-Inflammatory, and Antibiofilm Activities of Tryptophan-Substituted Peptides Derived from Cecropin A-Melittin Hybrid Peptide BP100” (Molecules, 2024)
Where no end group is shown, it is not given here.

How the values were obtained:
S. aureus (KCTC 1621) = assay type: cell-based, Staphylococcus aureus; settings: broth microdilution in MHB, 37 °C, 24 h, 100% inhibition of growth
Method: (§1) The antibacterial efficacy of the synthesized peptides was evaluated by determining the minimal inhibitory concentrations (MICs) against six standard bacterial strains and five drug-resistant bacterial strains using the Clinical and Laboratory Standards Institute (CLSI) microdilution method. Melittin served as the positive control.
(§2) The minimal inhibitory concentrations (MICs) of the peptides against bacterial strains were determined using a modified broth-microdilution method in accordance with the National Committee for Clinical Laboratory Standards (NCCLS) guidelines. Overnight cultures were diluted in cation-adjusted Mueller–Hinton Broth (MHB) to achieve an inoculum density of 2 × 10^6 CFU/mL. A two-fold serial dilution of the peptide solution (100 μL) was introduced into microtiter plates, followed by the addition of 100 μL of bacterial suspension. The plates were then incubated at 37 °C for 24 h to determine the MICs. Wells containing only culture media served as negative controls, while those with added bacteria functioned as positive controls. The MIC, expressed in μM, was defined as the lowest peptide concentration that prevented visible bacterial growth. This protocol was also employed to determine MICs in the presence of physiological salts (150 mM of NaCl, 4.5 mM of KCl, 6 μM of NH4Cl, 1 mM of MgCl2, 2.5 mM of CaCl2, and 4 μM of FeCl3) and 20% human serum to assess the peptides’ efficacy under conditions more closely resembling physiological environments. All experiments were conducted in triplicate and repeated three times independently to ensure reproducibility and statistical significance of the results.

[1] = tested on: S. epidermidis (KCTC 1917); assay type: cell-based, Staphylococcus epidermidis; settings: broth microdilution in MHB, 37 °C, 24 h, 100% inhibition of growth
Method: as §1, §2

MRSA (CCARM 3089) = assay type: cell-based, methicillin-resistant Staphylococcus aureus; settings: broth microdilution in MHB, 37 °C, 24 h, 100% inhibition of growth
Method: as §1, §2

MRSA (CCARM 3090) = assay type: cell-based, methicillin-resistant Staphylococcus aureus; settings: broth microdilution in MHB, 37 °C, 24 h, 100% inhibition of growth
Method: as §1, §2

[2] = tested on: P. aeruginosa (KCTC 1637); assay type: cell-based, Pseudomonas aeruginosa; settings: broth microdilution in MHB, 37 °C, 24 h, 100% inhibition of growth
Method: as §1, §2

[3] = tested on: S. typhimurium (KCTC 1926); assay type: cell-based, Salmonella typhimurium; settings: broth microdilution in MHB, 37 °C, 24 h, 100% inhibition of growth
Method: as §1, §2

[4] = tested on: sheep red blood cells (sRBCs); experiment: Hemolytic activity assay; assay type: cell-based; settings: 4% (v/v) sheep red blood cells in PBS, 1 h, 37 °C; 1 to 256 μM tested
Method: To assess toxicity in mammalian cells, we evaluated the hemolytic activity of the peptides on sheep red blood cells (sRBCs). […] The therapeutic index (TI), a measure commonly employed to evaluate the cell selectivity of antibacterial agents, was calculated as the ratio of the concentration causing 10% hemolysis of sRBCs (HC10) to the GM [19, 20, 21, 22].
The hemolytic activity of the peptides was tested through hemolysis assay of sheep red blood cells (sRBCs). The sRBCs were diluted in PBS to achieve a 4% (v/v) concentration. Subsequently, 100 μL of peptide solutions, ranging from 1 to 256 μM, was dispensed into a 96-well plate containing an equal volume of the erythrocyte suspension. After incubating for 1 h at 37 °C and centrifuging at 1000× g for 10 min, 100 μL of the supernatant was transferred to a new 96-well plate. Hemoglobin release was quantified using a microplate reader at a wavelength of […]. The percentage of hemolysis was calculated using percentage hemolysis = 100 × [[…]], where A represents the absorbance of the peptide-treated sample at 540 nm, A0 corresponds to the absorbance value representing 0% hemolysis in PBS, and At corresponds to the absorbance value representing 100% hemolysis in 0.1% Triton X-100.

[5] = tested on: preformed MDRPA (CCARM 2095) biofilms; assay type: cell-based, multidrug-resistant Pseudomonas aeruginosa; settings: 24 h treatment; for MBEC50: 50% eradication; for MBEC90: 90% eradication
Method: While preventing biofilm formation on surfaces is crucial, treating established biofilm infections presents a significant challenge due to the extracellular polymeric substance (EPS) matrix hindering antibiotic penetration and the high cell density within mature biofilms. To address this challenge, we evaluated the ability of BP100 and its analogs to eradicate established MDRPA biofilms over a 24 h period. The minimum biofilm eradication concentration (MBEC90) was determined using crystal violet staining as the lowest concentration that reduced biomass by more than 90%. Among these peptides, BP5, BP6, BP7, BP8, BP9, BP11, and BP13 eradicated preformed MDRPA biofilms by more than 90% at a concentration of 8 μM (Figure 3c,d and Table 3).
The minimal biofilm eradication concentration (MBEC) for peptides against the multidrug-resistant Pseudomonas aeruginosa (MDRPA) (CCARM 2095) strain was assessed using the Calgary Biofilm Device (CBD), supplied by Innovotech, Edmonton, AB, Canada. A bacterial suspension with a density of (1 × 10^6) CFU/mL in (150 µL) of Luria–Bertani (LB) media was dispensed into each well of a 96-well microtiter plate, which was equipped with a peg lid (Innovotech, product code: 19111). This plate was incubated at 37 °C for 24 h with agitation at 110 rpm, promoting biofilm formation on the pegs. Subsequently, the peg lid was washed with phosphate-buffered saline (PBS, 0.01 M) and relocated to a fresh plate containing varying peptide concentrations (200 µL per well). The biofilms were then subjected to these peptides under the same incubation conditions. After another PBS rinse, the peg lid was moved to a recovery plate filled with (200 µL) of LB media per well. To detach the biofilms from the pegs, the recovery plate underwent sonication in a water bath for 10 to 15 min. Finally, the recovery plate was incubated at 37 °C for 24 h with agitation at 110 rpm, allowing any surviving bacteria to proliferate and cause turbidity. The MBEC is defined as the lowest concentration of peptides that inhibited turbidity formation in the recovery plate in comparison to sterility controls. This experiment was conducted in triplicate, and the median value from each trial was recorded.

Row | Compound | Minimal Inhibitory Concentration (MIC) (S. aureus (KCTC 1621)) | Minimal Inhibitory Concentration (MIC) [1] | Minimal Inhibitory Concentration (MIC) (MRSA (CCARM 3089)) | Minimal Inhibitory Concentration (MIC) (MRSA (CCARM 3090)) | Minimal Inhibitory Concentration (MIC) [2] | Minimal Inhibitory Concentration (MIC) [3] | HC10 (peptide concentration that caused 10% hemolysis) [4] | MBEC50 [5] | MBEC90 [5]
1 | CC(C)C[C@H](NC(=O)[C@H](Cc1ccc(O)cc1)NC(=O)[C@H](CCCCN)NC(=O)[C@H](CC(C)C)NC(=O)[C@H](Cc1c[nH]c2ccccc12)NC(=O)[C@H](CCCCN)NC(=O)[C@H](CCCCN)NC(=O)[C@H](Cc1ccccc1)NC(=O)[C@H](CC(C)C)NC(=O)[C@H](CCCCN)NC(=O)[C@@H](N)CCCCN)C(N)=O [BP2] | 4 µM | 2 µM | 16 µM | 16 µM | 8 µM | 8 µM | >256 µM | 16 to 32 µM | 32 µM
2 | KKLWKKIWKYL-NH2 [BP7] | 2 µM | 2 µM | 8 µM | 32 µM | 8 µM | 2 µM | >256 µM | 4 to 8 µM | 8 µM
3 | KKLFKKWLKYW-NH2 [BP10] | 8 µM | 8 µM | 64 µM | 64 µM | 8 µM | 8 µM | >256 µM | 8 to 16 µM | 16 µM
4 | KKLWKKILKWL-NH2 [BP8] | 4 µM | 2 µM | 16 µM | 16 µM | 16 µM | 4 µM | >256 µM | 2 µM | 8 µM
5 | KKLFKKILKWW-NH2 [BP12] | 4 µM | 4 µM | 64 µM | 64 µM | 16 µM | 4 µM | >256 µM | 8 to 16 µM | 16 µM
